Results taken from paper PMC12527977, “Discovery of a novel tetrapeptide as glucose homeostasis modulator with bifunctionalities of targeting DPP‐IV and microbiota” (iMeta, 2025).
Where a SMILES comes first, the peptide text is derived from it.

Columns and labels:
[1] = Tissue distribution of VAMP 30 min after 10 mg/kg by gavage; format: in vivo, mouse; details: for Tissue distribution, relative proportion in Heart / Tissue distribution, relative proportion in Intestinal content / Tissue distribution, relative proportion in Intestinal tissue / Tissue distribution, relative proportion in Kidney / Tissue distribution, relative proportion in Liver / Tissue distribution, relative proportion in Lung / Tissue distribution, relative proportion in Spleen: 10 mg/kg by gavage, 30 min
Procedure: FIGURE 2 VAMP inhibits intestinal dipeptidyl peptidase IV (DPP‐IV) and increases the abundance of A. muciniphila. (A) The experimental scheme for (B–O) is shown, n = 6 mice/group. HFD‐fed mice were treated with PBS (vehicle group) or VAMP (50 mg/kg, VAMP group) for 8 weeks by oral gavage. (B) The body weight change, (C) FBG level, (D) intestinal active GLP‐1 levels, (E) plasma active GLP‐1 levels, (F) OGTT curve, (G) AUC of the OGTT, and (H) HOMA‐IR index were evaluated. (I) Intestinal permeability was measured by plasma fluorescence intensity after gavage with FITC‐dextran 4000. (J) The plasma levels of LPS, (K) TNF‐α, and (L) IL‐1β were determined. (M) Carnoy‐fixed colonic tissue sections were stained with Alcian blue/periodic acid‐Schiff. Scale bars, 100 µm. (N) Blinded colonic mucus layer measurements were made from Alcian blue‐stained sections. (O) The relative expression of Tjp1, Ocln, Cldn1, Cldn3, Cldn4, Cldn5, and Muc2 mRNAs in colonic tissue was determined. (P) The blood pharmacokinetics of 10 mg/kg VAMP administered by injection (i.v.) or gavage (p.o.) over time were evaluated. (Q) The tissue distribution of VAMP at the time of peak plasma concentration (30 min) after the administration of 10 mg/kg VAMP by gavage was determined (n = 4). (R) PCoA was performed using the Bray‒Curtis distance. (S, T) Taxonomic cladograms were generated by LEfSe analysis. The blue color indicates enriched taxa in the VAMP group, and the red color indicates enriched taxa in the vehicle group. The size of each circle is proportional to the taxon's abundance. (U) The change in bacterial abundance at the species level after VAMP treatment was determined via random forest analysis. (V) Growth curve of A. muciniphila cultured in BHI media supplemented with VAMP (50 μM) or PBS (Vehicle) and then grown anaerobically. (W−Y) RNA‐seq analysis of the A. muciniphila cultured in BHI media supplemented with VAMP (50 μM) or PBS control (Vehicle) was performed (n = 3). (W) PCA of transcriptome. (X) Biofunction changes of A. muciniphila by VAMP treatment via KEGG enrichment analysis. (Y) Volcano plot of transcriptome sequencing of Vehicle and VAMP groups. (Z) Levels of peptidoglycan by VAMP treatment. *p < 0.05 and **p < 0.01 versus the vehicle group. AUC, area under the curve; BHI, brain heart infusion; FBG, fasting blood glucose; GLP‐1, glucagon‐like peptide‐1; HOMA‐IR, homeostatic model assessment of insulin resistance; IL‐1β, interleukin‐1β; LEfSe, linear discriminant analysis effect size; LPS, lipopolysaccharide; OGTT, oral glucose tolerance test; PCoA, principal coordinate analysis; TNF‐α, tumor necrosis factor α.
We first determined the VAMP metabolic kinetics in model mice.

in vitro = in vitro ADME, Akkermansia muciniphila; details: cells or culture medium, VAMP remaining, incubated with A. muciniphila
From the text: The levels of VAMP at different time points were quantified by targeted metabolomics.

For CSCC[C@H](NC(=O)[C@H](C)NC(=O)[C@@H](N)C(C)C)C(=O)N1CCC[C@H]1C(=O)O [VAMP] (H-VAMP-OH), the “Tissue distribution, relative proportion in Heart” value ([1]; animal 1) was 0.7129%, the “Tissue distribution, relative proportion in Intestinal content” value ([1]; animal 1) was 72.8435% and the “Tissue distribution, relative proportion in Intestinal tissue” value ([1]; animal 1) was 17.3859%. The “Tissue distribution, relative proportion in Kidney” value ([1]; animal 1) was 1.873%, the “Tissue distribution, relative proportion in Liver” value ([1]; animal 1) was 2.36% and the “Tissue distribution, relative proportion in Lung” value ([1]; animal 1) was 1.2931%. For the same compound, the “Tissue distribution, relative proportion in Spleen” value ([1]; animal 1) was 3.531%, the “Tissue distribution, relative proportion in Heart” value ([1]; animal 2) was 0.3824% and the “Tissue distribution, relative proportion in Intestinal content” value ([1]; animal 2) was 73.0882%. For the same compound, the “Tissue distribution, relative proportion in Intestinal tissue” value ([1]; animal 2) was 19.9706%, the “Tissue distribution, relative proportion in Kidney” value ([1]; animal 2) was 1.279% and the “Tissue distribution, relative proportion in Liver” value ([1]; animal 2) was 2.103%. For the same compound, the “Tissue distribution, relative proportion in Lung” value ([1]; animal 2) was 0.9118%, the “Tissue distribution, relative proportion in Spleen” value ([1]; animal 2) was 2.265% and the “Tissue distribution, relative proportion in Heart” value ([1]; animal 3) was 0.4562%. For the same compound, the “Tissue distribution, relative proportion in Intestinal content” value ([1]; animal 3) was 74.7307%, the “Tissue distribution, relative proportion in Intestinal tissue” value ([1]; animal 3) was 19.1872% and the “Tissue distribution, relative proportion in Kidney” value ([1]; animal 3) was 0.6681%. The “Tissue distribution, relative proportion in Liver” value ([1]; animal 3) was 1.699%, the “Tissue distribution, relative proportion in Lung” value ([1]; animal 3) was 0.5703% and the “Tissue distribution, relative proportion in Spleen” value ([1]; animal 3) was 2.689%. The “Tissue distribution, relative proportion in Heart” value ([1]; animal 4) was 0.5116%, the “Tissue distribution, relative proportion in Intestinal content” value ([1]; animal 4) was 76.0476% and the “Tissue distribution, relative proportion in Intestinal tissue” value ([1]; animal 4) was 16.2858%. For the same compound, the “Tissue distribution, relative proportion in Kidney” value ([1]; animal 4) was 1.305%, the “Tissue distribution, relative proportion in Liver” value ([1]; animal 4) was 2.163% and the “Tissue distribution, relative proportion in Lung” value ([1]; animal 4) was 0.882%. The “Tissue distribution, relative proportion in Spleen” value ([1]; animal 4) was 2.805%, the “VAMP remaining in the intestinal content at the time of peak plasma concentration” value ([1]; after gavage) was 74.18% and the remaining at 3 h, 100 μM (in vitro; time 3) was 98.6%. For the same compound, the remaining at 6 h, 100 μM (in vitro; time 6) was 95.4%, the remaining at 9 h, 100 μM (in vitro; time 9) was 93.3% and the remaining at 12 h, 100 μM (in vitro; time 12) was 79.6%. It also gave a remaining at 24 h, 100 μM (in vitro; time 24) of 28.1%, a remaining at 36 h, 100 μM (in vitro; time 36) of 21.4% and a remaining at 48 h, 100 μM (in vitro; time 48) of 19.3%.
